Measured values from publication PMC10165273, “Itch receptor MRGPRX4 interacts with the receptor activity–modifying proteins” (The Journal of Biological Chemistry, 2023).
Values joined by “and” are separate entries in the source; they are usually repeats but may differ in a detail not shown here. Equal values may be shown once. Read-outs that look alike come from different tables or passages of the source.

Target: T1, MRGPRX4 (Homo sapiens, UniProt Q96LA9)
T1 construct: expressed in transfected cells; host or cells: HEK293T
Assay: IP1 accumulation HTRF assay, MRGPRX4
Type: cell-based
Design: key to IP1 Basal / IP1 accumulation with YM (Figure 1c) / response to agonist, MRGPRX4 / IP1 accumulation: % IP1: unstimulated mock-transfected = 0%, fully stimulated MRGPRX4 = 100%

T1 sequence (Q96LA9 whole entry): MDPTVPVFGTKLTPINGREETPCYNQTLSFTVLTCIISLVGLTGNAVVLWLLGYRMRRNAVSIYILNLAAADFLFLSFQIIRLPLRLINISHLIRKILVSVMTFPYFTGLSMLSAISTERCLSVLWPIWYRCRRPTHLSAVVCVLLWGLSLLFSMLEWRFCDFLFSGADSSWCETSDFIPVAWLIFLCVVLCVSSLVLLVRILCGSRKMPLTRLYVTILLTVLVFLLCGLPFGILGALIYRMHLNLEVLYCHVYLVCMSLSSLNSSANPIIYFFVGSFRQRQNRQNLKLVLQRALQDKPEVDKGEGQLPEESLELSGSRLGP

What does the source list for `CC(C)[C@H]1CC[C@H](C(=O)N[C@H](Cc2ccccc2)C(=O)O)CC1` [Nateglinide]?
EC50 (MRGPRX4 0.25 pg DNA/cell, individual experiments, read-out: potency (Figure 1b top) (converted)): 13.5 µM (2×) and 12.5 µM; Emax (MRGPRX4 0.5 pg DNA/cell, individual experiments, read-out: efficacy (Figure 1b bottom)): 95.7%; EC50 (MRGPRX4 0.5 pg DNA/cell, individual experiments, read-out: potency (Figure 1b top) (converted)): 12.3 µM and 9.23 µM; Emax (MRGPRX4 1 pg DNA/cell, individual experiments, read-out: efficacy (Figure 1b bottom)): 104%; EC50 (MRGPRX4 1 pg DNA/cell, individual experiments, read-out: potency (Figure 1b top) (converted)): 10.9 µM and 9.68 µM and 8.2 µM; Emax (MRGPRX4 2 pg DNA/cell, individual experiments, read-out: efficacy (Figure 1b bottom)): 97.2%; EC50 (MRGPRX4 2 pg DNA/cell, individual experiments, read-out: potency (Figure 1b top) (converted)): 6.87 µM and 6.27 µM and 6.64 µM; IP1 Basal (MRGPRX4 (Fig. 1A), HEK293T, normalized to 100 μM nateglinide): 14.95; EC50 (MRGPRX4 (Fig. 1A), HEK293T, normalized to 100 μM nateglinide, read-out: IP1 EC50): 10.7 µM; EC50 (MRGPRX4, HEK293T (Fig. 1A), read-out: EC50 concentration, IP1 accumulation): 10.6 µM; IP1 accumulation (MRGPRX4: 2pg/cell, log [Nateglinide] (M) -4, Fig S1b/c): 100; IP1 accumulation (MRGPRX4: 2pg/cell, log [Nateglinide] (M) -4.69897, Fig S1b/c): 88.6878 and 83.9734; IP1 accumulation (MRGPRX4: 2pg/cell, log [Nateglinide] (M) -5.39794, Fig S1b/c): 45.9251 and 47.3838; IP1 accumulation (MRGPRX4: 2pg/cell, log [Nateglinide] (M) -6.09691, Fig S1b/c): 18.7171 and 20.7267; IP1 accumulation (MRGPRX4: 2pg/cell, log [Nateglinide] (M) -6.79588, Fig S1b/c): 11.3987 and 15.6075; IP1 accumulation (MRGPRX4: 2pg/cell, log [Nateglinide] (M) -7.49485, Fig S1b/c): 10.9025 and 14.1936; IP1 Basal (MRGPRX4 DNA 0.25 pg/cell (Fig. S1)): 4.926; EC50 (MRGPRX4 DNA 0.25 pg/cell (Fig. S1), read-out: IP1 EC50): 13.6 µM; Emax (MRGPRX4 DNA 0.25 pg/cell (Fig. S1), read-out: IP1 Emax): 84.4%; Emax (MRGPRX4 DNA 0.25 pg/cell (Fig. S1), read-out: IP1 span): 79.5%; IP1 Basal (MRGPRX4 DNA 0.5 pg/cell (Fig. S1)): 6.421; EC50 (MRGPRX4 DNA 0.5 pg/cell (Fig. S1), read-out: IP1 EC50): 11 µM; Emax (MRGPRX4 DNA 0.5 pg/cell (Fig. S1), read-out: IP1 Emax): 97.5%; Emax (MRGPRX4 DNA 0.5 pg/cell (Fig. S1), read-out: IP1 span): 91%; IP1 Basal (MRGPRX4 DNA 1 pg/cell (Fig. S1)): 9.219; EC50 (MRGPRX4 DNA 1 pg/cell (Fig. S1), read-out: IP1 EC50): 9.79 µM; Emax (MRGPRX4 DNA 1 pg/cell (Fig. S1), read-out: IP1 Emax): 106%; Emax (MRGPRX4 DNA 1 pg/cell (Fig. S1), read-out: IP1 span): 96.7%; IP1 Basal (MRGPRX4 DNA 2 pg/cell (Fig. S1)): 11.77; EC50 (MRGPRX4 DNA 2 pg/cell (Fig. S1), read-out: IP1 EC50): 6.8 µM; Emax (MRGPRX4 DNA 2 pg/cell (Fig. S1), read-out: IP1 Emax): 108%; Emax (MRGPRX4 DNA 2 pg/cell (Fig. S1), read-out: IP1 span): 96.3%; EC50 (MRGPRX4 DNA […] (Fig. S1), read-out: IP1 EC50): 13.9 µM; Emax (MRGPRX4 DNA […] (Fig. S1), read-out: IP1 Emax): 74.8%; Emax (MRGPRX4 DNA […] (Fig. S1), read-out: IP1 span): 72.2%; IP1 accumulation (MRGPRX4 alone, log [Nateglinide] (M) -4.69897, Fig S3a-c): 73.8798 and 88.0796; IP1 accumulation (MRGPRX4 alone, log [Nateglinide] (M) -5.39794, Fig S3a-c): 42.3002 and 52.0108; IP1 accumulation (MRGPRX4 alone, log [Nateglinide] (M) -6.09691, Fig S3a-c): 21.697 and 30.974; IP1 accumulation (MRGPRX4 alone, log [Nateglinide] (M) -6.79588, Fig S3a-c): 15.7135 and 25.7363; IP1 accumulation (MRGPRX4 alone, log [Nateglinide] (M) -7.49485, Fig S3a-c): 14.3426 and 24.4649; normalized IP1 accumulation (SP-FLAG-Nluc-HT7-MRGX4_Tet-GFP10-1D4, log [agonist] (M) -4.09691): 53.7873 and 50.7716; normalized IP1 accumulation (SP-FLAG-Nluc-HT7-MRGX4_Tet-GFP10-1D4, log [agonist] (M) -4.79588): 39.105 and 47.513; normalized IP1 accumulation (SP-FLAG-Nluc-HT7-MRGX4_Tet-GFP10-1D4, log [agonist] (M) -5.49485): 24.2093 and 23.5323; normalized IP1 accumulation (SP-FLAG-Nluc-HT7-MRGX4_Tet-GFP10-1D4, log [agonist] (M) -6.19382): 9.755 and 12.1626; normalized IP1 accumulation (SP-FLAG-Nluc-HT7-MRGX4_Tet-GFP10-1D4, log [agonist] (M) -6.89279): 9.31 and 10.6126; normalized IP1 accumulation (SP-FLAG-Nluc-HT7-MRGX4_Tet-GFP10-1D4, log [agonist] (M) -7.59176): 10.0922 and 8.039; normalized IP1 accumulation (SP-FLAG-Nluc-HT7-MRGX4_Tet-GFP10-1D4 no dox, log [agonist] (M) -4.79588): 9.836 and 10.4491; normalized IP1 accumulation (SP-FLAG-Nluc-HT7-MRGX4_Tet-GFP10-1D4 no dox, log [agonist] (M) -5.49485): 7.573 and 7.949; normalized IP1 accumulation (SP-FLAG-Nluc-HT7-MRGX4_Tet-GFP10-1D4 no dox, log [agonist] (M) -6.19382): 7.652 and 7.516; normalized IP1 accumulation (SP-FLAG-Nluc-HT7-MRGX4_Tet-GFP10-1D4 no dox, log [agonist] (M) -6.89279): 8.115 and 7.953; normalized IP1 accumulation (SP-FLAG-Nluc-HT7-MRGX4_Tet-GFP10-1D4 no dox, log [agonist] (M) -7.59176): 8.427 and 8.747; normalized IP1 accumulation (SP-Flag-MRGX4-1D4, log [agonist] (M) -4): 90.7901 and 99.3577; normalized IP1 accumulation (SP-Flag-MRGX4-1D4, log [agonist] (M) -4.69897): 68.6541 and 83.0667; normalized IP1 accumulation (SP-Flag-MRGX4-1D4, log [agonist] (M) -5.39794): 34.48 and 31.1467; normalized IP1 accumulation (SP-Flag-MRGX4-1D4, log [agonist] (M) -6.09691): 13.1213 and 14.7496; normalized IP1 accumulation (SP-Flag-MRGX4-1D4, log [agonist] (M) -6.79588): 9.479 and 9.146; normalized IP1 accumulation (SP-Flag-MRGX4-1D4, log [agonist] (M) -7.49485): 7.648 and 7.711; normalized IP1 accumulation (SP-Flag-MRGX4-GFP10-1D4, log [agonist] (M) -4.69897): 81.9562 and 74.6812; normalized IP1 accumulation (SP-Flag-MRGX4-GFP10-1D4, log [agonist] (M) -5.39794): 38.7817 and 35.4094; normalized IP1 accumulation (SP-Flag-MRGX4-GFP10-1D4, log [agonist] (M) -6.09691): 15.3576 and 16.0977; normalized IP1 accumulation (SP-Flag-MRGX4-GFP10-1D4, log [agonist] (M) -6.79588): 8.66 and 9.498; normalized IP1 accumulation (SP-Flag-MRGX4-GFP10-1D4, log [agonist] (M) -7.49485): 9.929 and 8.168; IP1 Basal (Tet-On MRGPRX4 1pg/cell, Dox 13 ng/mL (Fig. S5B)): -3.433; EC50 (Tet-On MRGPRX4 1pg/cell, Dox 13 ng/mL (Fig. S5B), read-out: IP1 EC50): 19.2 µM; Emax (Tet-On MRGPRX4 1pg/cell, Dox 13 ng/mL (Fig. S5B), read-out: IP1 Emax): 17.4%; Emax (Tet-On MRGPRX4 1pg/cell, Dox 13 ng/mL (Fig. S5B), read-out: IP1 span): 20.8%; IP1 Basal (Tet-On MRGPRX4 1pg/cell, Dox 40 ng/mL (Fig. S5B)): -3.380; EC50 (Tet-On MRGPRX4 1pg/cell, Dox 40 ng/mL (Fig. S5B), read-out: IP1 EC50): 13.7 µM; Emax (Tet-On MRGPRX4 1pg/cell, Dox 40 ng/mL (Fig. S5B), read-out: IP1 Emax): 18.8%; Emax (Tet-On MRGPRX4 1pg/cell, Dox 40 ng/mL (Fig. S5B), read-out: IP1 span): 22.1%; IP1 Basal (Tet-On MRGPRX4 1pg/cell, Dox 1100 ng/mL (Fig. S5B)): -3.039; EC50 (Tet-On MRGPRX4 1pg/cell, Dox 1100 ng/mL (Fig. S5B), read-out: IP1 EC50): 10.8 µM; Emax (Tet-On MRGPRX4 1pg/cell, Dox 1100 ng/mL (Fig. S5B), read-out: IP1 Emax): 30.6%; Emax (Tet-On MRGPRX4 1pg/cell, Dox 1100 ng/mL (Fig. S5B), read-out: IP1 span): 33.7%; IP1 Basal (Tet-On MRGPRX4 1pg/cell, Dox 3300 ng/mL (Fig. S5B)): -1.008
